# From patent US9989533B2, “Anti-TNF induced apoptosis (ATIA) diagnostic markers and therapies” (The United States of America, as represented by the …, priority 2009, dated 2018)
# Where two headings read alike, the source gives them in different places.
# Experiments:
# A172 cells = experiment: apoptosis (annexin positive cells) after cyclohexamide treatment under hypoxia (FIG. 28 top); type: cell-based, human; conditions: in the presence of CHX
# Experimental: (§1) FIG. 28 is two panels that show the effect of cyclohexamide on ATIA stability and cell apoptosis.
# (§2) Experiments were performed with small chemical molecules to reduce ATIA levels in cancer cells. Examples of small molecules that can be used include, but are not limited to, cyclohexamide. […] Preferably, […] is administered locally to the tumor.
# ATIA [1] = experiment: effect of cyclohexamide on ATIA stability, blot (FIG. 28 bottom); type: cell-based, human
# Experimental: as §1, §2
# ATIA+/+ and ATIA−/− mice = type: in vivo; conditions: GalN pretreatment, TNFα 2 μg/Kg intravenous, by 8 hr post-treatment
# Experimental: (A) is a schematic diagram of ATIA knockout strategy. (B) and (C) show the generation of ATIA+/− ES cells (B) and ATIA+/− and ATIA−/− mice (C) was confirmed by PCR. […] Survival curves of wild-type (n=5) and ATIA KO (n=8) after TNF treatment. […] Tissue sections were analyzed by H&E (left panels) and TUNNEL (right panels) staining.
# To determine whether ATIA is able to protect from TNF-induced apoptosis in vivo, a model of TNF-induced hepatitis (26, 27) was used. […] By 8 hr post-treatment, 20% of ATIA+/+ mice as compared to more than 85% of ATIA—mice were moribund (FIG. 5D). […] No other histological differences were noted. […] To further confirm this observation, we also examined TNF-induced apoptosis in ATIA−/− MEFs. Wild-type and ATIA−/− mouse embryonic fibroblast cell lines were established from 10.5-12.5 day old wild-type and ATIA knockout embryos. The cell lines were verified for the loss of ATIA by genomic PCR analysis and western blotting with the anti-ATIA antibody (data not shown). Cells were treated with TNF and varied doses of cyclohexamide (CHX) (FIG. 6A). […] Cell death induced by UV radiation or staurosporine is however, only moderately affected by the loss of ATIA (FIG. 6B).
# ATIA [2] = type: cell-based
# [3] = system: A172, U87MG and 251 glioblastoma cells; experiment: TRAIL-induced cell death in glioblastoma cells (FIG. 19); type: cell-based; conditions: ATIA-expressing human glioblastoma cells (A172) versus cells which do not express ATIA (U87MG); TRAIL 20 ng/ml, 24 h
# Excerpt: Next, the sensitivity of ATIA expressing cells to TRAIL-induced cell death was examined. FIG. 19, left panel, is a western blot showing the expression of ATIA in various glioblastoma cell types.
molecule,measurement,setting,value
C[C@@H]1C[C@@H]([C@H](O)CC2CC(=O)NC(=O)C2)C(=O)[C@@H](C)C1 [cycloheximide],apoptosis under hypoxia,A172 cells,undergo apoptosis
same,effect on ATIA level,"ATIA [1]; 0.5 ug, A172 Cells",causes the decrease of ATIA
same,effect on ATIA levels,"ATIA [1]; low levels (e.g. 0.1 μg-1.0 μg), tumor cells",reduces ATIA levels
TNFα,moribund mice,ATIA+/+ and ATIA−/− mice; ATIA+/+ mice,20%
same,moribund mice,ATIA+/+ and ATIA−/− mice; ATIA−/− mice,more than 85%
[Cl-].[Cl-].[Co+2] [CoCl2],ATIA protein expression,ATIA [2],considerably increased
"TRAIL: tumour necrosis factor-related apoptosis-inducing ligand (protein, UniProt P50591 1-281, looked up) Tumor necrosis factor ligand …: MAMMEVQGGPSLGQTCVLIVIFTVLLQSLCVAVTYVYFTNELKQMQDKYSKSGIACFLKEDDSYWDPNDEESMNSPCWQVKWQLRQLVRKMILRTSEETISTVQEKQQNISPLVRERGPQRVAAHITGTRGRSNTLSSPNSKNEKALGRKINSWESSRSGHSFLSNLHLRNGELVIHEKGFYYIYSQTYFRFQEEIKENTKNDKQMVQYIYKYTSYPDPILLMKSARNSCWSKDAEYGLYSIYQGGIFELKENDRIFVSVTNEHLIDMDHEASFFGAFLVG",sensitivity to TRAIL-induced cell death,[3],much more sensitive to TRAIL-induced cell death
